Read-outs that look alike come from different tables or passages of the source. Bridge positions count the residues as written; N and C are the ends. Square brackets hold non-standard residues; d marks the D form. Peptide text beside a SMILES is read from it. * marks the point of attachment. Ileψ(thiazoline)Cys = CC[C@H](C)[C@H](N)C1=N[C@H](C(=O)*)CS1; dOrn = NCCC[C@@H](N)C(=O)O
Test system: Entamoeba histolytica
Assay type: cell-based
From the text: E. histolytica isolates representing three distinct zymodemes (I, II or XIV) were derived from a range of geographical locations. The patients from whom the isolates were obtained were either pathogenic (i.e. presented dysentery), or non-pathogenic (i.e., presented a non-dysenteric stage of infection characterized by passing of cysts or trophozoites). The following table identifies the E. histolytica isolates in accordance with the above criteria:
Each isolate was a xenic culture, i.e., it contained, in addition to the E. histolytica amoeba, the normally occurring patient faecal microflora. The cultures were maintained according to the method of Robinson, Trans. Roy. Soc. Trop. Med. Hyg. 62, 285-94, (1968). Bacitracin (70 I.U./mg) and its zinc salt (65 I.U./mg) were obtained from Apothekernes Laboratorium A.S (Oslo, Norway). Following microtitre-assay standardization and pilot testing of the drugs (results not presented), the following assay procedure was established. Bacitracin was screened over the range of 20.0-0.625 mg/ml by doubling dilution. 30 mg/ml bacitracin was also examined. […] The remaining wells were run as controls. An initial stock solution of 75 mg/ml bacitracin was prepared in starch-free Robinson medium (SFRM) . Subsequent to loading the first set of wells, the stock was diluted with SFRM to 50 mg/ml, which was used to prepare the remaining concentrations. […] 100 μl volumes of both drugs were then double-diluted in SFRM to provide 2.5X concentrates of the required final concentrations in the microtitre plates. 50 μl of a 25 mg% starch (BDH) solution (in SFRM) was then added to each well. 16-18 hours before the end of the required 48-hour culture period, the amoeba isolates were passaged to fresh tubes containing starch-free Robinson medium. At the end of the culture period, the amoebae were harvested in a small volume of medium and resuspended in at least 20 volumes SFRM. The suspensions were centrifuged at 1000 rpm for 5 minutes prior to re-suspension in fresh medium and counted in a modified Neubauer chamber. Amoebae were centrifuged as before and the pellet resuspended to a concentration of 2.5×10^4 /ml SFRM. 100 μl aliquots were then pipetted into respective wells to provide duplicate cultures of each isolate for each concentration assayed. The plates were then placed in an anaerobic chamber (HP11, Oxoid) at 37° C. for 24 hours. While this procedure provided sufficient starch for the amoebae, the concentration was such that at 24 hours the plates were easily read and quantitified by direct observation using an inverted microscope. Viability was assessed by the addition of Trypan blue to a final concentration of 0.1%.
Readings from each of the studies were collected and stored until all three experiments were completed in order to reduce any bias in subsequent readings. Minimun inhibitory and minimum lethal concentrations were given in mg/ml. […]

[1] = xenic isolate 70k, Experiment 1
[2] = xenic isolate 70k, Experiment 2
[3] = xenic isolate 70k, Experiment 3
[4] = xenic isolate 116k, Experiment 1
[5] = xenic isolate 116k, Experiment 2
[6] = xenic isolate 116k, Experiment 3
[7] = xenic isolate 418, Experiment 1
[8] = xenic isolate 418, Experiment 2
[9] = xenic isolate 418, Experiment 3
[10] = xenic isolate 1246, Experiment 1
[11] = xenic isolate 1246, Experiment 2
[12] = xenic isolate 1246, Experiment 3
[13] = xenic isolate AiDO, Experiment 1
[14] = xenic isolate AiDO, Experiment 2
[15] = xenic isolate AiDO, Experiment 3
[16] = xenic isolate BiLO, Experiment 1
[17] = xenic isolate BiLO, Experiment 3
[18] = xenic isolate DOGO, Experiment 1
[19] = xenic isolate DOGO, Experiment 2
[20] = xenic isolate DOGO, Experiment 3
[21] = xenic isolate OMAk, Experiment 1
[22] = xenic isolate OMAk, Experiment 3
[23] = xenic isolate Sh2, Experiment 2
[24] = xenic isolate Sh2, Experiment 3
[25] = xenic isolate T2k, Experiment 1
[26] = xenic isolate T2k, Experiment 2
[27] = xenic isolate T2k, Experiment 3
[28] = xenic isolate URU1, Experiment 1
[29] = xenic isolate URU1, Experiment 2
[30] = xenic isolate URU1, Experiment 3
[31] = xenic isolate URU19, Experiment 1

CC[C@H](C)[C@H](N)C1=N[C@H](C(=O)N[C@@H](CC(C)C)C(=O)N[C@H](CCC(=O)O)C(=O)N[C@H](C(=O)N[C@H]2CCCCNC(=O)[C@H](CC(N)=O)NC(=O)[C@@H](CC(=O)O)NC(=O)[C@H](Cc3cnc[nH]3)NC(=O)[C@@H](Cc3ccccc3)NC(=O)[C@H]([C@@H](C)CC)NC(=O)[C@@H](CCCN)NC2=O)[C@@H](C)CC)CS1 [Bacitracin, reference compound] ({Ileψ(thiazoline)Cys}-L[dE]IK[dOrn]I[dF]H[dD]N; lactam 4-C)
0.63 mg/mL: Minimum Inhibitory Concentration (MIC) [8] | Minimum Inhibitory Concentration (MIC) [9] | Minimum Inhibitory Concentration (MIC) [12] | Minimum Inhibitory Concentration (MIC) (xenic isolate DA, Experiment 3) | Minimum Inhibitory Concentration (MIC) [20] | Minimum Inhibitory Concentration (MIC) (xenic isolate GS, Experiment 3) | Minimum Inhibitory Concentration (MIC) [27] | Minimum Inhibitory Concentration (MIC) (xenic isolate T4, Experiment 3)
1.25 mg/mL: Minimum Inhibitory Concentration (MIC) [5] | Minimum Inhibitory Concentration (MIC) [6] | Minimum Inhibitory Concentration (MIC) [17] | Minimum Inhibitory Concentration (MIC) (xenic isolate C1, Experiment 3) | Minimum Inhibitory Concentration (MIC) (xenic isolate GS, Experiment 2) | Minimum Inhibitory Concentration (MIC) (xenic isolate MS, Experiment 3) | Minimum Inhibitory Concentration (MIC) [22] | Minimum Inhibitory Concentration (MIC) [30]
24 mg/mL: Minimum Lethal Concentration (MLC) (xenic Isolate C1, single study over a narrower range of drug concentration (Table 4))
10.0 mg/mL: Minimum Inhibitory Concentration (MIC) (xenic isolate 1, Experiment 2) | Minimum Inhibitory Concentration (MIC) [3] | Minimum Inhibitory Concentration (MIC) [4] | Minimum Inhibitory Concentration (MIC) [11] | Minimum Inhibitory Concentration (MIC) [13] | Minimum Inhibitory Concentration (MIC) (xenic isolate C1, Experiment 1) | Minimum Lethal Concentration (MLC) [20]
21 mg/mL: Minimum Lethal Concentration (MLC) (xenic Isolate 1, single study over a narrower range of drug concentration (Table 4))
2.5 mg/mL: Minimum Inhibitory Concentration (MIC) [10] | Minimum Inhibitory Concentration (MIC) [14] | Minimum Inhibitory Concentration (MIC) [15] | Minimum Inhibitory Concentration (MIC) (xenic isolate C2, Experiment 1) | Minimum Inhibitory Concentration (MIC) (xenic isolate C2, Experiment 3) | Minimum Inhibitory Concentration (MIC) (xenic isolate DA, Experiment 1) | Minimum Inhibitory Concentration (MIC) [18] | Minimum Inhibitory Concentration (MIC) [19] | Minimum Inhibitory Concentration (MIC) (xenic isolate GS, Experiment 1) | Minimum Inhibitory Concentration (MIC) (xenic isolate MS, Experiment 2) | Minimum Inhibitory Concentration (MIC) [21] | Minimum Inhibitory Concentration (MIC) (xenic isolate SI, Experiment 1) | Minimum Inhibitory Concentration (MIC) (xenic isolate SI, Experiment 3) | Minimum Inhibitory Concentration (MIC) [24] | Minimum Inhibitory Concentration (MIC) [25] | Minimum Inhibitory Concentration (MIC) [26] | Minimum Inhibitory Concentration (MIC) (xenic isolate T4, Experiment 2) | Minimum Inhibitory Concentration (MIC) (xenic isolate T6, Experiment 1) | Minimum Inhibitory Concentration (MIC) (xenic isolate T6, Experiment 2) | Minimum Inhibitory Concentration (MIC) (xenic isolate T6, Experiment 3) | Minimum Inhibitory Concentration (MIC) [28] | Minimum Inhibitory Concentration (MIC) [29] | Minimum Inhibitory Concentration (MIC) [31]
30.0 mg/mL: Minimum Lethal Concentration (MLC) (xenic isolate 1, Experiment 1) | Minimum Lethal Concentration (MLC) (xenic isolate 1, Experiment 2) | Minimum Lethal Concentration (MLC) (xenic isolate 1, Experiment 3) | Minimum Lethal Concentration (MLC) [1] | Minimum Lethal Concentration (MLC) [3] | Minimum Lethal Concentration (MLC) [4] | Minimum Lethal Concentration (MLC) [5] | Minimum Lethal Concentration (MLC) [6] | Minimum Lethal Concentration (MLC) [7] | Minimum Lethal Concentration (MLC) [10] | Minimum Lethal Concentration (MLC) [13] | Minimum Lethal Concentration (MLC) [14] | Minimum Lethal Concentration (MLC) [15] | Minimum Lethal Concentration (MLC) [16] | Minimum Lethal Concentration (MLC) (xenic isolate C1, Experiment 1) | Minimum Lethal Concentration (MLC) (xenic isolate C2, Experiment 1) | Minimum Lethal Concentration (MLC) (xenic isolate C2, Experiment 3) | Minimum Lethal Concentration (MLC) (xenic isolate DA, Experiment 1) | Minimum Lethal Concentration (MLC) (xenic isolate DA, Experiment 2) | Minimum Lethal Concentration (MLC) [18] | Minimum Lethal Concentration (MLC) (xenic isolate GS, Experiment 1) | Minimum Lethal Concentration (MLC) (xenic isolate GS, Experiment 3) | Minimum Lethal Concentration (MLC) (xenic isolate MS, Experiment 1) | Minimum Lethal Concentration (MLC) [21] | Minimum Lethal Concentration (MLC) [22] | Minimum Lethal Concentration (MLC) (xenic isolate SI, Experiment 1) | Minimum Lethal Concentration (MLC) [24] | Minimum Lethal Concentration (MLC) [25] | Minimum Lethal Concentration (MLC) [26] | Minimum Lethal Concentration (MLC) [27] | Minimum Lethal Concentration (MLC) (xenic isolate T4, Experiment 1) | Minimum Lethal Concentration (MLC) (xenic isolate T4, Experiment 2) | Minimum Lethal Concentration (MLC) (xenic isolate T4, Experiment 3) | Minimum Lethal Concentration (MLC) (xenic isolate T6, Experiment 1) | Minimum Lethal Concentration (MLC) [28] | Minimum Lethal Concentration (MLC) [30] | Minimum Lethal Concentration (MLC) [31]
5.0 mg/mL: Minimum Inhibitory Concentration (MIC) (xenic isolate 1, Experiment 1) | Minimum Inhibitory Concentration (MIC) (xenic isolate 1, Experiment 3) | Minimum Inhibitory Concentration (MIC) [1] | Minimum Inhibitory Concentration (MIC) [2] | Minimum Inhibitory Concentration (MIC) [7] | Minimum Inhibitory Concentration (MIC) [16] | Minimum Inhibitory Concentration (MIC) (xenic isolate C1, Experiment 2) | Minimum Inhibitory Concentration (MIC) (xenic isolate C2, Experiment 2) | Minimum Inhibitory Concentration (MIC) (xenic isolate DA, Experiment 2) | Minimum Inhibitory Concentration (MIC) (xenic isolate MS, Experiment 1) | Minimum Inhibitory Concentration (MIC) [23] | Minimum Inhibitory Concentration (MIC) (xenic isolate T4, Experiment 1)
20.0 mg/mL: Minimum Lethal Concentration (MLC) [2] | Minimum Lethal Concentration (MLC) [8] | Minimum Lethal Concentration (MLC) [9] | Minimum Lethal Concentration (MLC) [11] | Minimum Lethal Concentration (MLC) [12] | Minimum Lethal Concentration (MLC) [17] | Minimum Lethal Concentration (MLC) (xenic isolate C1, Experiment 2) | Minimum Lethal Concentration (MLC) (xenic isolate C1, Experiment 3) | Minimum Lethal Concentration (MLC) (xenic isolate C2, Experiment 2) | Minimum Lethal Concentration (MLC) (xenic isolate DA, Experiment 3) | Minimum Lethal Concentration (MLC) [19] | Minimum Lethal Concentration (MLC) (xenic isolate GS, Experiment 2) | Minimum Lethal Concentration (MLC) (xenic isolate MS, Experiment 2) | Minimum Lethal Concentration (MLC) (xenic isolate MS, Experiment 3) | Minimum Lethal Concentration (MLC) (xenic isolate SI, Experiment 3) | Minimum Lethal Concentration (MLC) [23] | Minimum Lethal Concentration (MLC) (xenic isolate T6, Experiment 2) | Minimum Lethal Concentration (MLC) (xenic isolate T6, Experiment 3) | Minimum Lethal Concentration (MLC) [29]
0.63 to 10.0 mg/mL: MICs (span over all xenic isolates and studies)
